Converted amounts (≈) assume the structure as drawn.
What was measured:
Set-up in all cases: agar dilution MIC, growth inhibition of clinical Burkholderia isolates
[1] = tested on: T1, B. vietnamiensis AU10214; assay: microbe, parasite or virus in culture; conditions: Burkholderia vietnamiensis, AU10214
T1 construct: AU10214
Method in brief: (§1)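 MICs by agar dilution against Bcc and B. gladioli clinical isolates, interpreted with CLSI breakpoints where available; K. pneumoniae ATCC 700603 (SHV-18) and ATCC BAA-1705 (KPC) served as quality controls.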

[2] = tested on: T2, Burkholderia cepacia complex Bcc Indeterminate AU12560; assay: microbe, parasite or virus in culture; conditions: Burkholderia cepacia
T2 construct: AU12560
Method in brief: as §1

[3] = tested on: T3, B. multivorans AU16734; assay: microbe, parasite or virus in culture; conditions: Burkholderia multivorans, AU16734
T3 construct: AU16734
Method in brief: as §1

[4] = tested on: T4, B. multivorans AU30050; assay: microbe, parasite or virus in culture; conditions: Burkholderia multivorans, AU30050
T4 construct: AU30050
Method in brief: as §1

[5] = tested on: T5, B. multivorans AU15814; assay: microbe, parasite or virus in culture; conditions: Burkholderia multivorans, AU15814
T5 construct: AU15814
Method in brief: as §1

[6] = tested on: T6, B. multivorans AU14364; assay: microbe, parasite or virus in culture; conditions: Burkholderia multivorans, AU14364
T6 construct: AU14364
Method in brief: as §1

[7] = tested on: T7, B. vietnamiensis AU21549; assay: microbe, parasite or virus in culture; conditions: Burkholderia vietnamiensis, AU21549
T7 construct: AU21549
Method in brief: as §1

[8] = tested on: T8, B. multivorans AU22892; assay: microbe, parasite or virus in culture; conditions: Burkholderia multivorans, AU22892
T8 construct: AU22892
Method in brief: as §1

[9] = tested on: T9, B. dolosa AU9336; assay: microbe, parasite or virus in culture; conditions: Burkholderia dolosa, AU9336
T9 construct: AU9336
Method in brief: as §1

[10] = tested on: T10, B. cenocepacia AU0583; assay: microbe, parasite or virus in culture; conditions: Burkholderia cenocepacia, AU0583
T10 construct: AU0583
Method in brief: as §1

[11] = tested on: T11, B. cenocepacia AU24362; assay: microbe, parasite or virus in culture; conditions: Burkholderia cenocepacia, AU24362
T11 construct: AU24362
Method in brief: as §1

[12] = tested on: T12, B. arboris AU14372; assay: organism not typed
T12 construct: AU14372
Method in brief: as §1

[13] = tested on: T13, B. cepacia AU15677; assay: microbe, parasite or virus in culture; conditions: Burkholderia cepacia, AU15677
T13 construct: AU15677
Method in brief: as §1

[14] = tested on: T14, B. cenocepacia AU3663; assay: microbe, parasite or virus in culture; conditions: Burkholderia cenocepacia, AU3663
T14 construct: AU3663
Method in brief: as §1

[15] = tested on: T15, B. cenocepacia AU17796; assay: microbe, parasite or virus in culture; conditions: Burkholderia cenocepacia, AU17796
T15 construct: AU17796
Method in brief: as §1

[16] = tested on: T16, B. multivorans AU19659; assay: microbe, parasite or virus in culture; conditions: Burkholderia multivorans, AU19659
T16 construct: AU19659
Method in brief: as §1

[17] = tested on: T17, B. vietnamiensis AU19457; assay: microbe, parasite or virus in culture; conditions: Burkholderia vietnamiensis, AU19457
T17 construct: AU19457
Method in brief: as §1

[18] = tested on: T18, B. stabilis AU9035; assay: microbe, parasite or virus in culture; conditions: Burkholderia stabilis, AU9035
T18 construct: AU9035
Method in brief: as §1

[19] = tested on: T19, B. cenocepacia AU21083; assay: microbe, parasite or virus in culture; conditions: Burkholderia cenocepacia, AU21083
T19 construct: AU21083
Method in brief: as §1

[20] = tested on: T20, B. cenocepacia AU16448; assay: microbe, parasite or virus in culture; conditions: Burkholderia cenocepacia, AU16448
T20 construct: AU16448
Method in brief: as §1

[21] = tested on: T21, B. vietnamiensis AU26096; assay: microbe, parasite or virus in culture; conditions: Burkholderia vietnamiensis, AU26096
T21 construct: AU26096
Method in brief: as §1

[22] = tested on: T22, B. cepacia AU23707; assay: microbe, parasite or virus in culture; conditions: Burkholderia cepacia, AU23707
T22 construct: AU23707
Method in brief: as §1

Structure (SMILES) | MIC [1] [µg/mL] | MIC [2] [µg/mL] | MIC [3] [µg/mL] | MIC [4] [µg/mL] | MIC [5] [µg/mL] | MIC [6] [µg/mL] | MIC [7] [µg/mL] | MIC [8] [µg/mL] | MIC [9] [µg/mL] | MIC [10] [µg/mL] | MIC [11] [µg/mL] | MIC [12] [µg/mL] | MIC [13] [µg/mL] | MIC [14] [µg/mL] | MIC [15] [µg/mL] | MIC [16] [µg/mL] | MIC [17] [µg/mL] | MIC [18] [µg/mL] | MIC [19] [µg/mL] | MIC [20] [µg/mL] | also measured
C[C@H]1COc2c(N3CCN(C)CC3)c(F)cc3c(=O)c(C(=O)O)cn1c23 [levofloxacin] | 8 (≈ 22.1 µM) | 8 (≈ 22.1 µM) | 8 (≈ 22.1 µM) | 1 (≈ 2.77 µM) | 16 (≈ 44.3 µM) | 32 (≈ 88.6 µM) | 4 (≈ 11.1 µM) | 2 (≈ 5.53 µM) | 32 (≈ 88.6 µM) | > 32 | 8 (≈ 22.1 µM) | 8 (≈ 22.1 µM) | 4 (≈ 11.1 µM) | 16 (≈ 44.3 µM) | 8 (≈ 22.1 µM) | 16 (≈ 44.3 µM) | 16 (≈ 44.3 µM) | 16 (≈ 44.3 µM) | 2 (≈ 5.53 µM) | 8 (≈ 22.1 µM) | MIC [21]: > 32 µg/mL; MIC [22]: 32 µg/mL (≈ 88.6 µM)
CO/N=C(\C(=O)N[C@@H]1C(=O)N2C(C(=O)[O-])=C(C[N+]3(C)CCCC3)CS[C@H]12)c1csc(N)n1 [cefepime] | 8 (≈ 16.6 µM) | 32 (≈ 66.6 µM) | 16 (≈ 33.3 µM) | 2 (≈ 4.16 µM) | 32 (≈ 66.6 µM) | > 32 | 2 (≈ 4.16 µM) | 2 (≈ 4.16 µM) | > 32 | 32 (≈ 66.6 µM) | > 32 | > 32 | 32 (≈ 66.6 µM) | 32 (≈ 66.6 µM) | 16 (≈ 33.3 µM) | > 32 | > 32 | 32 (≈ 66.6 µM) | 16 (≈ 33.3 µM) | 16 (≈ 33.3 µM) | MIC [21]: 32 µg/mL (≈ 66.6 µM); MIC [22]: 32 µg/mL (≈ 66.6 µM)
C[C@@H](O)[C@H]1C(=O)N2C(C(=O)O)=C(S[C@@H]3CN[C@H](C(=O)N(C)C)C3)[C@H](C)[C@H]12 [meropenem] | 0.5 (≈ 1.3 µM) | 4 (≈ 10.4 µM) | 16 (≈ 41.7 µM) | 2 (≈ 5.22 µM) | > 32 | 4 (≈ 10.4 µM) | 0.5 (≈ 1.3 µM) | 4 (≈ 10.4 µM) | 8 (≈ 20.9 µM) | 4 (≈ 10.4 µM) | 16 (≈ 41.7 µM) | 16 (≈ 41.7 µM) | 4 (≈ 10.4 µM) | 4 (≈ 10.4 µM) | 4 (≈ 10.4 µM) | 32 (≈ 83.4 µM) | 4 (≈ 10.4 µM) | 8 (≈ 20.9 µM) | 4 (≈ 10.4 µM) | 4 (≈ 10.4 µM) | MIC [21]: 8 µg/mL (≈ 20.9 µM); MIC [22]: 8 µg/mL (≈ 20.9 µM)
